We go through two compounds from patent publication US4226980A, “Novel derivatives of fortimicin B and process for preparing same” (Abbott Laboratories, priority 1978, dated 1980).

One data set relates to Escherichia coli NIHJ-2. The data set is described as follows: antibacterial activity (MIC). The format is cell-based. The following applies: medium pH 7.2, Japanese Antibiotic Medicament Standard; unit assumed. The protocol: (§1) Furthermore in the following Table 3, the antibacterial activity (MIC) of the compounds are set forth. The measurement was carried out according to the Japanese Antibiotic Medicament Standard using a medium having a pH of 7.2. Numbers of the compounds in Table 3 correspond to those in Tables 1 and 2.

Data set [1] has as its system Staphylococcus aureus 209-p. The data set is described as follows: antibacterial activity (MIC). The format is cell-based. To be noted: medium pH 7.2, Japanese Antibiotic Medicament Standard; unit assumed. The protocol: as §1
The subject of data set [2] is Staphylococcus aureus Smith. The data set is described as follows: antibacterial activity (MIC). The following applies: medium pH 7.2, Japanese Antibiotic Medicament Standard; unit assumed. The format is cell-based. As for the experimental part: as §1
Data set [3] has as its system Bacillus subtilis ATCC 6633. Nature of the data set: antibacterial activity (MIC). Format: cell-based. To be noted: medium pH 7.2, Japanese Antibiotic Medicament Standard; unit assumed. As for the experimental part:
as §1

Data set [4] deals with Klebsiella pneumoniae #8045. Nature of the data set: antibacterial activity (MIC). To be noted: medium pH 7.2, Japanese Antibiotic Medicament Standard; unit assumed. Format: cell-based. As for the experimental part:
as §1

In data set [5] the test system is Shigella sonnei ATCC 9290. Nature of the data set: antibacterial activity (MIC). Format: cell-based. The following applies: medium pH 7.2, Japanese Antibiotic Medicament Standard; unit assumed. As for the experimental part: as §1
The test system of the next data set is Escherichia coli 3100. The data set is described as follows: antibacterial activity (MIC). The format is cell-based. To be noted: medium pH 7.2, Japanese Antibiotic Medicament Standard; unit assumed. As for the experimental part:
as §1

Another data set deals with Providencia sp. KY3950. Nature of the data set: antibacterial activity (MIC). The following applies: medium pH 7.2, Japanese Antibiotic Medicament Standard; unit assumed. The format is cell-based. The protocol:
as §1

The subject of data set [6] is Pseudomonas aeruginosa BMH#10. The data set is described as follows: antibacterial activity (MIC). Format: cell-based. The following applies: medium pH 7.2, Japanese Antibiotic Medicament Standard; unit assumed. The protocol: as §1
For data set [7] the following is noted: strongly alkaline or alkaline conditions; cited from earlier work.
Data set [8] relates to Escherichia coli R17 Z-343. Nature of the data set: antibacterial activity (MIC), resistant strain. The format is cell-based. To be noted: medium pH 7.2; strain "producing kanamycin" (footnote 1); unit assumed. The protocol: as §1
Data set [9] concerns Escherichia coli R19 KY-8348. The data set is described as follows: antibacterial activity (MIC), resistant strain. The format is cell-based. The following applies: medium pH 7.2; strain producing gentamicin acetyltransferase; unit assumed. The protocol: as §1
Data set [10] relates to Escherichia coli R18 KY-8321. Nature of the data set: antibacterial activity (MIC), resistant strain. Format: cell-based. To be noted: medium pH 7.2; strain producing gentamicin nucleotidyltransferase and neomycin phosphotransferase II; unit assumed. The protocol: as §1
Data set [11] deals with Pseudomonas aeruginosa R9 KY8516. Nature of the data set: antibacterial activity (MIC), resistant strain. The format is cell-based. The following applies: medium pH 7.2; strain "producing kanamycin" (footnote 1); unit assumed. The protocol:
as §1

For another data set, the system named is Providencia sp. 164. Nature of the data set: antibacterial activity (MIC), resistant strain. The following applies: medium pH 7.2; strain producing gentamicin acetyltransferase (footnote 5); unit assumed. Format: cell-based. The protocol:
as §1

The test system of data set [12] is Escherichia coli 57R/W677. Nature of the data set: antibacterial activity (MIC), resistant strain. The following applies: medium pH 7.2; strain "producing gentamicin" (footnote 4); unit assumed. The format is cell-based. As for the experimental part: as §1
Data set [13] has as its system Pseudomonas aeruginosa R4 KY8511. Nature of the data set: antibacterial activity (MIC), resistant strain. The following applies: medium pH 7.2; strain producing gentamicin acetyltransferase; unit assumed. Format: cell-based. As for the experimental part:
as §1

The subject of data set [14] is Klebsiella pneumniae 3020 Y60. Nature of the data set: antibacterial activity (MIC), resistant strain. To be noted: medium pH 7.2; strain "producing gentamicin" (footnote 4); unit assumed. The format is cell-based. The protocol: as §1
The format of data set [15] is physicochemical. An excerpt: That is, Compound I-a is almost decomposed in an alkaline solution with a pH of 10 at room temperature for 2 weeks to form compounds having low activity.
For data set [16], the system named is various microorganisms including resistant strains. The following applies: earlier patents; cited from earlier work.

In the case of `COC1C(O)C(N)C(OC2OC(C(C)N)CCC2N)C(O)C1N(C)C(=O)CNC(N)=O` (stereo not shown) [Compound 3, fortimicin C, reference compound], the antibacterial activity (MIC) in the data set with Escherichia coli NIHJ-2 was 3.12 µg/mL; in [1] it was 6.25 µg/mL; in [2] it was 12.5 µg/mL; in [3] it was 3.12 µg/mL; in data set [4] it was 12.5 µg/mL; in data set [5], 25 µg/mL. The antibacterial activity (MIC) in the data set with Escherichia coli 3100 was 12.5 µg/mL; with Providencia sp. KY3950, 25 µg/mL; in data set [6], 3.12 µg/mL; in data set [8], 3.12 µg/mL; in [9], more than 100 µg/mL; in data set [10] it was 12.5 µg/mL. The antibacterial activity (MIC) in data set [11] is 50 µg/mL; with Providencia sp. 164 it was 25 µg/mL; in [12], 6.25 µg/mL; in data set [13], more than 100 µg/mL; in [14], 50 µg/mL. Also, in data set [7], the “stability under alkaline conditions (background)” value is on record as “slightly unstable”. For the same compound, the “stability under strongly alkaline conditions” value in data set [15] is “slightly unstable”.
In the case of `CNC1C(O)C(OC2OC(C(C)N)CCC2N)C(N)C(O)C1OC` (stereo not shown) [Compound 1, fortimicin B], the antibacterial activity (MIC) in the data set with Escherichia coli NIHJ-2 was more than 100 µg/mL; in data set [1], more than 100 µg/mL; in data set [2], 100 µg/mL; in data set [3] it was 25 µg/mL; in data set [4], 100 µg/mL; in [5], more than 100 µg/mL. The antibacterial activity (MIC) in the data set with Escherichia coli 3100 is 100 µg/mL; in the data set with Providencia sp. KY3950, more than 100 µg/mL; in data set [6], more than 100 µg/mL; in [8], more than 100 µg/mL; in data set [9] it was more than 100 µg/mL; in data set [10], more than 100 µg/mL. The antibacterial activity (MIC) (in data set [11]; in the data set on Providencia sp. 164; in data set [12]; in data set [13]; in data set [14]) was more than 100 µg/mL in each case. Moreover, the “antibacterial activity (background)” value in data set [16] is listed as “not as good as the other factors”.
